Assay results published in patent publication US9358276B2, “Methods of diagnosing and treating small intestinal bacterial overgrowth (SIBO) and SIBO-related conditions” (Cedars-Sinai Medical Center, priority 1999, dated 2016).
Several values for one entry are separate records, joined by “and”; a condition that tells them apart may be missing. Equal entries are not always repeated.

Assays:
[1] = tested on: intestinal transit; experiment: Intestinal transit in multi-fistulated dogs, cumulative % recovery of 99mTc-DTPA; assay type: in vivo, dog
Summary of the method: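 Fistulated mongrel dogs (~25 kg) had the ~150 cm segment between duodenal and mid-gut fistulas isolated by occluding catheters and perfused at 2 mL/min with buffer plus test agent (some given i.v.). About 20 μCi 99mTc-DTPA was given as a bolus at 60 min of a 90-min perfusion. Mid-gut output was collected every 5 min for 30 min, gamma-counted, and reported as cumulative % recovery.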

[2] = tested on: intestinal transit; experiment: Intestinal transit in fistulated dogs, Sqrt AUC of cumulative marker recovery; assay type: in vivo, dog
Protocol: In 4 dogs equipped with duodenal (10 cm from pylorus) and mid-gut (160 cm from pylorus) fistulas, as described hereinbelow (Example 14), intestinal transit was compared across an isolated 150 cm test segment (between fistulas) while 0, 15, 30 or 60 mM oleate was delivered into either the proximal or distal segment of the gut as a solution of mixed micelles in pH 7.0 phosphate buffer at 2 mL/min for 90 minutes. The segment of gut not receiving oleate was perfused with phosphate buffer, pH 7.0, at 2 mL/min. 60 minutes after the start of the perfusion, […] of ^99mTc-DTPA (diethylenetriaminepentaacetic acid) was delivered as a bolus into the test segment. Intestinal transit was then measured by counting the radioactivity of 1 ml samples collected every 5 minutes from the diverted output of the mid-gut fistula.
Intestinal transit was calculated by determining the area under the curve (AUC) of the cumulative percent recovery of the radioactive marker. The square root values of the AUC (Sqrt AUC), where 0=no recovery by 30 minutes and 47.4=theoretical, instantaneous complete recovery by time 0, were compared across region of fat exposure and oleate dose using 2-way repeated measures ANOVA (see Table 6 below).

[3] = tested on: SIBO; experiment: Antibiotic treatment of Crohn's disease subjects with SIBO; assay type: in vivo, human
Protocol: To correct for selection bias, a pilot study was conducted to determine the incidence of SIBO in subjects who had received a suspected diagnosis of Crohn's disease at Cedars-Sinai Medical Center=s IBD Center within the preceding three months.

[4] = tested on: SIBO; experiment: Case: depression with SIBO, neomycin; assay type: in vivo, human; conditions: one patient
Source text: A person presented with bloating, gas, abdominal distention, and cramping for a period of 3 years prior to LBHT. Symptoms of depression first appeared concurrently with the first appearance of bowel symptoms, and were serious enough that psychiatric hospitalization had been considered by their attending psychiatrist. The subject reported feeling very depressed and was convinced that life was not worth living. The subject=s LBHT indicated the presence of a SIBO condition. […] The subject had been prescribed eight different anti-depressant medications, all of which were discontinued as a result of their improvement.

[5] = tested on: SIBO; experiment: Case: multiple sclerosis with SIBO, neomycin; assay type: in vivo, human; conditions: one patient
Source text: A suspected diagnosis of multiple sclerosis had been made by a neurologist was based on various neuropathies of the peripheral nervous system, including numbness, tingling, and weakness in the lower extremities, but this subject also had associated bloating, gas, distension and alteration in bowel habits. The subject also complained of a significant fatigue and nausea. The subject underwent LBHT, which detected SIBO. […] They no longer had numbness or tingling in the hands or feet and was functioning quite well.

[6] = tested on: SIBO; experiment: Comparison of antibiotic regimes for eradicating SIBO, follow-up lactulose breath hydrogen test (LBHT); assay type: in vivo, human
Protocol: Subjects were tested after an overnight fast. […] Each breath sample was then analyzed for hydrogen content with a gas chromatograph (Quintron Model DP, Quintron Instrument Co., Division of E.F. Brewer Co, Menomonee Falls, Wis. 53051), standardized using a QuinGas standard as instructed by the manufacturer. Hydrogen peaks were plotted before and after an antimicrobial treatment regimen for comparison. The normal range for the second hydrogen peak was 0 to 20 ppm. Subjects referred to the Cedars-Sinai GI Motility Program for a lactulose breath hydrogen test (LBHT) to assess SIBO were entered into a database. Those that tested positive for SIBO were given antibiotic treatment by their referring physician and in some cases, returned for a follow-up LBHT to assess eradication of SIBO. During the follow-up LBHT, subjects were asked which antibiotic they were given to treat their SIBO. The eradication rate of each antibiotic was evaluated. Of the 771 subjects in the database, 561 (73%) tested positive for SIBO. […] (See Table 1 below). […] None of the commonly used antibiotics was universally successful in eradicating overgrowth.

[7] = Crohn's subjects, pooled over the named antibiotics

Compound: CCCCCCCC/C=C\CCCCCCCC(=O)[O-].[Na+] [oleate, sodium oleate]
- proximal intestinal transit, cumulative % marker recovered ([1]; 60 mM oleate distal gut, Saline (i.v.), Buffer Control 70.11 ± 6.51, five dogs): 26.62 ± 5.36%
- marker recovery ([1]; 60 mM oleate in proximal gut + normal saline (jejunal brake), n=3): 41.6±4.6%
- marker recovery ([1]; 60 mM oleate in proximal gut with 0 mg naloxone, n=7): 30.0±3.6%
- marker recovery ([1]; 60 mM oleate into distal gut, Buffer Control 79.7±5.8%, n=2 dogs): 25.8±5.2%
- marker recovery ([1]; 60 mM oleate to distal gut (ileal brake), Buffer Control 81.2%): 24.1%
- marker recovery ([1]; ileal brake (oleate in distal gut, buffer in proximal gut), control 76.3±3.1%, four dogs): 22.9±3.8%
- marker recovery ([1]; ileal brake, 60 mM oleate into distal gut, n=2): 20±1.8%
- marker recovery ([1]; ileal brake, 60 mM oleate to distal gut, no naloxone, n=11): 34.6±4.8%
- Sqrt AUC of cumulative percent marker recovery (mean ± SE) ([2]; Distal 1/2 of gut, 15 mM): 25.6 ± 1.4
- Sqrt AUC of cumulative percent marker recovery (mean ± SE) ([2]; Distal 1/2 of gut, 30 mM): 18.9 ± 1.5
- Sqrt AUC of cumulative percent marker recovery (mean ± SE) ([2]; Distal 1/2 of gut, 60 mM): 7.0 ± 3.8
- Sqrt AUC of cumulative percent marker recovery (mean ± SE) ([2]; Proximal 1/2 of gut, 15 mM, buffer control 41.4 ± 4.6): 41.6 ± 1.4
- Sqrt AUC of cumulative percent marker recovery (mean ± SE) ([2]; Proximal 1/2 of gut, 30 mM): 40.6 ± 10.2
- Sqrt AUC of cumulative percent marker recovery (mean ± SE) ([2]; Proximal 1/2 of gut, 60 mM): 34.4 ± 3.0

Compound: neomycin
- improvement in symptoms, breath test negative after antibiotic [3, 7]: 69±27%
- improvement in symptoms, subjects remaining positive on breath test after antibiotic [3, 7]: 20±0%
- eradication of SIBO (LBHT) ([3]; nine Crohn's patients): at least partially eradication of SIBO
- overall improvement in symptoms by VAS ([3]; nine Crohn's patients (n=8 reporting), 10-day course of 500 mg twice/daily): 57±32%
- eradication of SIBO (post-treatment LBHT) ([3]; pilot study, both subjects): completely at least partially eradicated
- overall improvement in symptoms ([3]; pilot study, two subjects, respectively, 10-day course): 60% and 80%
- depression [4]: completely resolved
- time to relapse of symptoms after initial response [5]: 6-8 weeks
- nausea, fatigue, bloating, gas distension and alteration in bowel habits ([5]; first treatment): complete resolution
- neuropathies ([5]; first treatment): dramatic improvement and resolution
- symptoms upon re-treatment ([5]; re-treatment 500 mg twice daily for 10 days): complete resolution of their symptoms
- eradication of bacterial overgrowth ([5]; 500 mg twice daily for 10 days): at least partially eradicated
- success in eradicating SIBO, comparison of antibiotics ([6]; 105 subjects with follow-up LBHT): most successful
- % Patients with SIBO Eradicated ([6]; follow-up LBHT): 55%
